For assay [1], the system named is HLM01, HLM02 and HLM05. Description: Chemical sensitivity analysis, Cluster A strains. The class given is cell-based, Rhodobacter sphaeroides. To be noted: 48 hours, OD 595 nm, conc. per Table 4B.
Assay [2] deals with high-lipid (HL) mutants. The assay is described as follows: Chemical sensitivity analysis, high-lipid mutants vs parent strain. The format is cell-based, Rhodobacter sphaeroides. To be noted: all HL mutants; 96-well plates, 30° C., 48 hours, OD 595 nm, normalized to DMSO control and parent strain; conc. per Table 4B.
Assay [3] concerns HLM04 and HLM07. Description: Chemical sensitivity analysis, Cluster B strains. The class given is cell-based, Rhodobacter sphaeroides. The note with it: 48 hours, OD 595 nm, conc. per Table 4B. How it is done: (§1) Selected compounds (Tables 4A and 4B) were tested for their effects on growth of the parent strain to determine the highest doses that cause <30% growth reduction. Parent and high-lipid mutant strains were grown in the presence of the chemicals, or DMSO as a control, in 96-well plates at 30° C. with shaking for 48 hours. Final ODs were read at 595 nm on an Infinite® F500 microplate reader (Tecan). For each strain, final ODs for each drug treatment were first divided by the OD of the DMSO control for that strain to determine relative cell growth, and then the growth value for each treated culture was normalized by the parent strain growth under the same condition.

Assay [4] has as its system HLM03. The note with it: 48 hours, OD 595 nm, conc. per Table 4B. How it is done:
as §1

Where a SMILES comes first, the peptide text is derived from it. Bridges are numbered along the chain shown (N, C = ends). [ ]: non-standard residue; d: D form. The star is where a group is joined. Ileψ(thiazoline)Cys = CC[C@H](C)[C@H](N)C1=N[C@H](C(=O)*)CS1; dOrn = NCCC[C@@H](N)C(=O)O

In the case of `CC[C@H]1OC(=O)[C@H](C)[C@@H](O[C@H]2C[C@@](C)(OC)[C@@H](O)[C@H](C)O2)[C@H](C)[C@@H](O[C@@H]2O[C@H](C)C[C@H](N(C)C)[C@H]2O)[C@](C)(OC)C[C@@H](C)C(=O)[C@H](C)[C@@H](O)[C@]1(C)O` [clarithromycin], the “sensitivity compared to the parent strain (relative growth, cluster * in FIG. 3)” value in assay [1] is recorded as “sensitive”.

Regarding neomycin, the “growth of the high-lipid mutants compared to the parent strain (relative fitness)” value in assay [2] is “no growth difference”.

For `CC[C@H](C)[C@H](N)C1=N[C@H](C(=O)N[C@@H](CC(C)C)C(=O)N[C@H](CCC(=O)O)C(=O)N[C@H](C(=O)N[C@H]2CCCCNC(=O)[C@H](CC(N)=O)NC(=O)[C@@H](CC(=O)O)NC(=O)[C@H](Cc3cnc[nH]3)NC(=O)[C@@H](Cc3ccccc3)NC(=O)[C@H]([C@@H](C)CC)NC(=O)[C@@H](CCCN)NC2=O)[C@@H](C)CC)CS1` [bacitracin] ({Ileψ(thiazoline)Cys}-L[dE]IK[dOrn]I[dF]H[dD]N; lactam 4-C), the “sensitivity compared to the parent strain (relative growth, cluster ** in FIG. 3)” value in assay [3] is reported as “increased sensitivity”.

As to `CO[C@H]1/C=C/O[C@@]2(C)Oc3c(C)c(O)c4c(O)c(c5c(nc6cc(C)ccn65)c4c3C2=O)NC(=O)/C(C)=C\C=C\[C@H](C)[C@H](O)[C@@H](C)[C@@H](O)[C@@H](C)[C@H](OC(C)=O)[C@@H]1C` [rifaximin], in assay [1], the “sensitivity compared to the parent strain (relative growth, cluster * in FIG. 3)” value is “sensitive”.

For the molecule `CC[C@H]1OC(=O)[C@H](C)[C@@H](O[C@H]2C[C@@](C)(OC)[C@@H](O)[C@H](C)O2)[C@H](C)[C@@H](O[C@@H]2O[C@H](C)C[C@H](N(C)C)[C@H]2O)[C@](C)(O)C[C@@H](C)C(=O)[C@H](C)[C@@H](O)[C@]1(C)O` [erythromycin], the “sensitivity compared to the parent strain (relative growth, cluster * in FIG. 3)” value in assay [1] is on record as “sensitive”.

`CO/N=C(\C(=O)N[C@@H]1C(=O)N2C(C(=O)O)=C(CSc3nc(=O)c(=O)[nH]n3C)CS[C@H]12)c1csc(N)n1` [ceftriaxone]: the “sensitivity compared to the parent strain (relative growth, cluster ** in FIG. 3)” value in assay [3] is “increased sensitivity”.

For `OO` [hydrogen peroxide], the “sensitivity compared to the parent strain (relative growth)” value in assay [4] is “increased sensitivity”.

For the molecule `CCCCCCCCCCCCOS(=O)(=O)[O-].[Na+]` [SDS, sodium dodecyl sulfate], the “growth of the high-lipid mutants compared to the parent strain (relative fitness)” value in assay [2] is listed as “many or all of the high-lipid mutants showed increased sensitivity”.

The record behind these values is patent US11008577B1 (priority 2017, dated 2021).
